Source: the supplement of paper PMC10307832

Columns and labels:
Assay in all cases: relative viability (nuclei count vs DMSO), 5 days (fraction); higher = more cells survive
COR-L 105 = test system: COR-L 105
Summary of the method: (§1)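 Relative viability divides the nuclei count in treated wells by that in vehicle wells. Lung cancer cell lines were seeded in 1536-well plates, dosed by pin tool the next day, and fixed and stained after 5 days in one step with final 0.05% Triton X-100, 1% formaldehyde and 1 ug/ml Hoechst. Dosing was a single drug or a fixed anchor-drug dose plus five library-drug doses (not always all listed) in √10 steps, and values are medians of duplicate plates imaged at 4×.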

COR-L23 = test system: COR-L23
Summary of the method: as §1

EKVX = test system: EKVX
Summary of the method: as §1

HARA = test system: HARA
Summary of the method: as §1

HCC-15 = test system: HCC-15
Summary of the method: as §1

HOP-62 = test system: HOP-62
Summary of the method: as §1

NCI-H1355 = test system: NCI-H1355
Summary of the method: as §1

NCI-H1395 = test system: NCI-H1395
Summary of the method: as §1

NCI-H1734 = test system: NCI-H1734
Summary of the method: as §1

NCI-H1755 = test system: NCI-H1755
Summary of the method: as §1

NCI-H1793 = test system: NCI-H1793
Summary of the method: as §1

NCI-H1993 = test system: NCI-H1993
Summary of the method: as §1

NCI-H2009 = test system: NCI-H2009
Summary of the method: as §1

NCI-H2170 = test system: NCI-H2170
Summary of the method: as §1

NCI-H2228 = test system: NCI-H2228
Summary of the method: as §1

NCI-H2347 = test system: NCI-H2347
Summary of the method: as §1

NCI-H358 = test system: NCI-H358
Summary of the method: as §1

NCI-H647 = test system: NCI-H647
Summary of the method: as §1

NCI-H838 = test system: NCI-H838
Summary of the method: as §1

PC-14 = test system: PC-14
Summary of the method: as §1

SK-MES-1 = test system: SK-MES-1
Summary of the method: as §1

UMC-11 = test system: UMC-11
Summary of the method: as §1

Work on C=C1C(=O)O[C@@H](CCCCCCCC)[C@@H]1C(=O)O [C-75] + CS(=O)(=O)N1CCN(Cc2cc3nc(-c4cccc5[nH]ncc45)nc(N4CCOCC4)c3s2)CC1 [Pictilisib] (partner 1 µM) yielded a relative viability (COR-L 105; first compound 0.08 µM) of 0.437, a relative viability (COR-L 105; first compound 0.253 µM) of 0.422 and a relative viability (COR-L 105; first compound 0.8 µM) of 0.469. For the same compound, the relative viability (COR-L 105; first compound 2.53 µM) was 0.432, the relative viability (COR-L 105; first compound 8 µM) was 0.343 and the relative viability (COR-L23; first compound 0.08 µM) was 0.663. It also gave a relative viability (COR-L23; first compound 0.253 µM) of 0.865, a relative viability (COR-L23; first compound 0.8 µM) of 0.78 and a relative viability (COR-L23; first compound 2.53 µM) of 0.609. For the same compound, the relative viability (COR-L23; first compound 8 µM) was 0.693, the relative viability (EKVX; first compound 0.08 µM) was 0.436 and the relative viability (EKVX; first compound 0.253 µM) was 0.448. The relative viability (EKVX; first compound 0.8 µM) was 0.426, the relative viability (EKVX; first compound 2.53 µM) was 0.458 and the relative viability (EKVX; first compound 8 µM) was 0.452. For the same compound, the relative viability (HARA; first compound 0.08 µM) was 0.413, the relative viability (HARA; first compound 0.253 µM) was 0.432 and the relative viability (HARA; first compound 0.8 µM) was 0.375. It also gave a relative viability (HARA; first compound 8 µM) of 0.585, a relative viability (HCC-15; first compound 0.08 µM) of 0.739 and a relative viability (HCC-15; first compound 0.253 µM) of 0.761. The relative viability (HCC-15; first compound 0.8 µM) was 0.654, the relative viability (HCC-15; first compound 2.53 µM) was 0.666 and the relative viability (HCC-15; first compound 8 µM) was 0.725. It also gave a relative viability (HOP-62; first compound 0.08 µM) of 0.732, a relative viability (HOP-62; first compound 0.253 µM) of 0.927 and a relative viability (HOP-62; first compound 0.8 µM) of 0.788. It also gave a relative viability (HOP-62; first compound 2.53 µM) of 0.73, a relative viability (HOP-62; first compound 8 µM) of 0.545 and a relative viability (NCI-H1355; first compound 0.08 µM) of 0.477. The relative viability (NCI-H1355; first compound 0.253 µM) was 0.48, the relative viability (NCI-H1355; first compound 0.8 µM) was 0.348 and the relative viability (NCI-H1355; first compound 2.53 µM) was 0.507. It also gave a relative viability (NCI-H1355; first compound 8 µM) of 0.465, a relative viability (NCI-H1395; first compound 0.08 µM) of 0.599 and a relative viability (NCI-H1395; first compound 0.253 µM) of 0.572. For the same compound, the relative viability (NCI-H1395; first compound 0.8 µM) was 0.539, the relative viability (NCI-H1395; first compound 2.53 µM) was 0.474 and the relative viability (NCI-H1395; first compound 8 µM) was 0.7. It also gave a relative viability (NCI-H1734; first compound 0.08 µM) of 0.435, a relative viability (NCI-H1734; first compound 0.253 µM) of 0.428 and a relative viability (NCI-H1734; first compound 0.8 µM) of 0.448. The relative viability (NCI-H1734; first compound 2.53 µM) was 0.384, the relative viability (NCI-H1734; first compound 8 µM) was 0.367 and the relative viability (NCI-H1755; first compound 0.08 µM) was 0.461. It also gave a relative viability (NCI-H1755; first compound 0.253 µM) of 0.448, a relative viability (NCI-H1755; first compound 0.8 µM) of 0.389 and a relative viability (NCI-H1755; first compound 2.53 µM) of 0.339. For the same compound, the relative viability (NCI-H1755; first compound 8 µM) was 0.402, the relative viability (NCI-H1793; first compound 0.08 µM) was 0.339 and the relative viability (NCI-H1793; first compound 0.253 µM) was 0.359. It also gave a relative viability (NCI-H1793; first compound 0.8 µM) of 0.324, a relative viability (NCI-H1793; first compound 2.53 µM) of 0.215 and a relative viability (NCI-H1793; first compound 8 µM) of 0.372. It also gave a relative viability (NCI-H1993; first compound 0.08 µM) of 0.727, a relative viability (NCI-H1993; first compound 0.253 µM) of 0.938 and a relative viability (NCI-H1993; first compound 0.8 µM) of 0.842. For the same compound, the relative viability (NCI-H1993; first compound 2.53 µM) was 0.801, the relative viability (NCI-H1993; first compound 8 µM) was 0.914 and the relative viability (NCI-H2009; first compound 0.08 µM) was 0.789. It also gave a relative viability (NCI-H2009; first compound 0.253 µM) of 0.96, a relative viability (NCI-H2009; first compound 0.8 µM) of 0.789 and a relative viability (NCI-H2009; first compound 2.53 µM) of 0.428. For the same compound, the relative viability (NCI-H2009; first compound 8 µM) was 0.6, the relative viability (NCI-H2170; first compound 0.08 µM) was 0.355 and the relative viability (NCI-H2170; first compound 0.253 µM) was 0.299. It also gave a relative viability (NCI-H2170; first compound 0.8 µM) of 0.318, a relative viability (NCI-H2170; first compound 2.53 µM) of 0.274 and a relative viability (NCI-H2170; first compound 8 µM) of 0.272. The relative viability (NCI-H2228; first compound 0.08 µM) was 0.429, the relative viability (NCI-H2228; first compound 0.253 µM) was 0.689 and the relative viability (NCI-H2228; first compound 0.8 µM) was 0.221. It also gave a relative viability (NCI-H2228; first compound 2.53 µM) of 0.202, a relative viability (NCI-H2228; first compound 8 µM) of 0.324 and a relative viability (NCI-H2347; first compound 0.08 µM) of 0.554. It also gave a relative viability (NCI-H2347; first compound 0.253 µM) of 0.877, a relative viability (NCI-H2347; first compound 0.8 µM) of 0.31 and a relative viability (NCI-H2347; first compound 2.53 µM) of 0.592. The relative viability (NCI-H2347; first compound 8 µM) was 0.649, the relative viability (NCI-H358; first compound 0.08 µM) was 0.365 and the relative viability (NCI-H358; first compound 0.253 µM) was 0.348. For the same compound, the relative viability (NCI-H358; first compound 0.8 µM) was 0.312, the relative viability (NCI-H358; first compound 2.53 µM) was 0.326 and the relative viability (NCI-H358; first compound 8 µM) was 0.361. The relative viability (NCI-H647; first compound 0.08 µM) was 0.449, the relative viability (NCI-H647; first compound 0.253 µM) was 0.427 and the relative viability (NCI-H647; first compound 2.53 µM) was 0.396. For the same compound, the relative viability (NCI-H647; first compound 8 µM) was 0.498, the relative viability (NCI-H838; first compound 0.08 µM) was 0.43 and the relative viability (NCI-H838; first compound 0.253 µM) was 0.376. For the same compound, the relative viability (NCI-H838; first compound 0.8 µM) was 0.444, the relative viability (NCI-H838; first compound 2.53 µM) was 0.386 and the relative viability (NCI-H838; first compound 8 µM) was 0.478. It also gave a relative viability (PC-14; first compound 0.08 µM) of 0.748, a relative viability (PC-14; first compound 0.253 µM) of 0.997 and a relative viability (PC-14; first compound 0.8 µM) of 0.668. It also gave a relative viability (PC-14; first compound 2.53 µM) of 0.753, a relative viability (PC-14; first compound 8 µM) of 0.695 and a relative viability (SK-MES-1; first compound 0.08 µM) of 0.339. It also gave a relative viability (SK-MES-1; first compound 0.253 µM) of 0.374, a relative viability (SK-MES-1; first compound 0.8 µM) of 0.374 and a relative viability (SK-MES-1; first compound 2.53 µM) of 0.373. For the same compound, the relative viability (SK-MES-1; first compound 8 µM) was 0.346, the relative viability (UMC-11; first compound 0.08 µM) was 0.74 and the relative viability (UMC-11; first compound 0.253 µM) was 0.899. For the same compound, the relative viability (UMC-11; first compound 0.8 µM) was 0.704, the relative viability (UMC-11; first compound 2.53 µM) was 0.702 and the relative viability (UMC-11; first compound 8 µM) was 0.75.
